This note sets out measurements from patent US20250331521A1, “NITROGEN-CONTAINING HETEROCYCLIC COMPOUND HAVING AN OXIME GROUP, AGRICULTURAL OR HORTICULTURAL HERBICIDE COMPRISING THE COMPOUND, AND METHOD FOR USING THE COMPOUND OR THE HERBICIDE” (NIHON NOHYAKU CO., LTD., priority 2022, published 2025).

As a reminder, the inhibition is the percentage by which the read-out fell short of the control.

The test system of the assay is Barnyard grass (Echinochloa crus-galli). The assay can be described thus: Test Example 1: post-emergence herbicidal effect against paddy weeds. Particulars: 144 h, active ingredient concentration 10 ppm, drop treatment in hydroponic medium, 30° C., full light, six days after treatment, compared to non-treatment group, read-out: herbicidal effect against barnyard grass (score, degree of growth inhibition). It is filed as in vivo. How it is done: Test Example 1: Test for Post-Emergence Herbicidal Effect Against Paddy Weeds Barnyard grass (Echinochloa crus-galli) was seeded and grown in test tubes containing hydroponic medium in an artificial climate chamber or a phytotron. Agrochemical formulations containing the compounds of the present invention as active ingredients prepared according to Formulation Example 1 were separately diluted with water so that the concentration of the active ingredient would be a predetermined concentration and used for drop treatment of the barnyard grass. The barnyard grass was grown in the artificial climate chamber at 30° C. under full light conditions. Six days after agrochemical treatment, the herbicidal effect was evaluated as compared to the non-treatment group according to the following criteria. Criteria for Herbicidal Effect (Degree of Growth Inhibition) and Phytotoxicity • Score 4 90% to 100% herbicidal effect • Score 3 70% to 89% herbicidal effect • Score 2 40% to 69% herbicidal effect • Score 1 1% to 39% herbicidal effect • Score 0 0% herbicidal effect
For `CCO/N=C(\N)c1ccc(S(=O)(=O)NC)c(-c2nc(-c3ccccc3)nn2C)n1` [Compound No. 1-4, (Z)-N′-ethoxy-6-(1-methyl-3-phenyl-1H-1,2,4-triazol-5-yl)-5-(N-methylsulfamoyl)picolinimidamide], the inhibition at 10 ppm was in the range of 70 to 89%.
With `CCO/N=C(\N)c1ccc(S(=O)(=O)NC)c(-c2nc(-c3ccccc3)cn2C)n1` [Compound No. 2-33, (Z)-N′-ethoxy-6-(1-methyl-4-phenyl-1H-imidazol-2-yl)-5-(N-methylsulfamoyl)picolinimidamide], the inhibition at 10 ppm fell in the range of 70 to 89%.
Next, `CCO/N=C(\N)c1ccc(S(=O)(=O)NC)c(-n2nc(-c3ccccc3)nc2C)n1` [Compound No. 3-3, (Z)-N′-ethoxy-6-(5-methyl-3-phenyl-1H-1,2,4-triazol-1-yl)-5-(N-methylsulfamoyl)picolinimidamide]: 70 to 89%; `CCO/N=C(\N)c1ccc(S(=O)(=O)NC)c(-n2nc(-c3ccccc3)cc2C)n1` [Compound No. 4-6, (Z)-N′-ethoxy-6-(5-methyl-3-phenyl-1H-pyrazol-1-yl)-5-(N-methylsulfamoyl)picolinimidamide]: 70 to 89%; `CCO/N=C(\N)c1ccc(C(=O)OCC)c(-c2nn(-c3ccccc3)c(=O)n2C)n1` [Compound No. 5-3, (Z)-ethyl 6-(N′-ethoxycarbamimidoyl)-2-(4-methyl-5-oxo-1-phenyl-4,5-dihydro-1H-1,2,4-triazol-3-yl)nicotinate]: 70 to 89%.
Next, `CCO/N=C(\C)c1ccc(S(C)(=O)=O)c(-n2c(C)nn(-c3ccccc3)c2=O)n1` [Compound No. 6-1, (E)-4-(6-(1-(ethoxyimino)ethyl)-3-(methylsulfonyl)pyridin-2-yl)-3-methyl-1-phenyl-1H-1,2,4-triazol-5(4H)-one]: 70 to 89%; `CCO/N=C(\N)c1ccc(C(=O)OCC)c(-c2nc(-c3ccccc3)sc2C)n1` [Compound No. 7-1, (Z)-ethyl 6-(N′-ethoxycarbamimidoyl)-2-(5-methyl-2-phenylthiazol-4-yl)nicotinate]: 70 to 89%; `CCO/N=C(\N)c1ccc(S(=O)(=O)NC)c(-c2csc(-c3ccccc3)n2)n1` [Compound No. 7-18, (Z)-N′-ethoxy-5-(N-methylsulfamoyl)-6-(2-phenylthiazol-4-yl)picolinimidamide]: 70 to 89%.
Next, `CCO/N=C(\N)c1ccc(S(=O)(=O)NC)c(-c2nc(-c3ccccc3)cs2)n1` [Compound No. 8-2, (Z)-N′-ethoxy-5-(N-methylsulfamoyl)-6-(4-phenylthiazol-2-yl)picolinimidamide]: 70 to 89%.
Take `CCO/N=C(\N)c1ccc(S(C)(=O)=O)c(-c2nc(-c3ccccc3)cs2)n1` [Compound No. 8-17, (Z)-N′-ethoxy-5-(methylsulfonyl)-6-(4-phenylthiazol-2-yl)picolinimidamide]: the inhibition at 10 ppm was in the range of 70 to 89%.
Next, `CCO/N=C(\N)c1ccc(S(=O)(=O)NC)c(-c2nn(-c3ccccc3)cc2C)n1` [Compound No. 10-2, (Z)-N′-ethoxy-6-(4-methyl-1-phenyl-1H-pyrazol-3-yl)-5-(N-methylsulfamoyl)picolinimidamide]: 70 to 89%.
Next, `CCO/N=C(\N)c1ccc(S(C)(=O)=O)c(-c2nn(-c3ccccc3)cc2C)n1` [Compound No. 10-16, (Z)-N′-ethoxy-6-(4-methyl-1-phenyl-1H-pyrazol-3-yl)-5-(methylsulfonyl)picolinimidamide]: 70 to 89%.
`CCO/N=C(\N)c1ccc(S(C)(=O)=O)c(-c2nn(-c3ccccc3[N+](=O)[O-])nc2C)n1` [Compound No. 11-95, (Z)-N′-ethoxy-6-(5-methyl-2-(2-nitrophenyl)-2H-1,2,3-triazol-4-yl)-5-(methylsulfonyl)picolinimidamide]: the inhibition at 10 ppm lay in the range of 70 to 89%.
For the compound `CCO/N=C(\N)c1ccc(S(=O)(=O)NC)c(-c2nc(-c3ccccc3Cl)nn2C)c1` [Compound No. 17-2, (Z)-3-(3-(2-chlorophenyl)-1-methyl-1H-1,2,4-triazol-5-yl)-N′-ethoxy-4-(N-methylsulfamoyl)benzimidamide], the inhibition at 10 ppm fell in the range of 70 to 89%.
Next, `CCO/N=C(\N)c1ccc(S(=O)(=O)NC)c(-n2nc(C)c(-c3ccccc3)n2)n1` [Compound No. 20-17, (Z)-N′-ethoxy-6-(4-methyl-5-phenyl-2H-1,2,3-triazol-2-yl)-5-(N-methylsulfamoyl)picolinimidamide]: 70 to 89%.
